pKd: −log10 of the molar value. Read-outs that look alike come from different tables or passages of the source. Positions of bridges follow the written chain, without caps; N, C: chain ends. Residues, ends and D or L forms follow the SMILES beside them.
Key:
Type in all cases: binding
FGF-R4 ECD = target: T1, FGF-R4 ECD (Homo sapiens, UniProt P22455); experiment: single concentration BLI of crude peptides; settings: read-out: KD (4)
T1 construct: DNA constructs for the extracellular domain (ECD) of human FGF-; HPC4 (C); made in house; host or cells: HEK 293-6E
T1 sequence (P22455 22-369 limits assumed): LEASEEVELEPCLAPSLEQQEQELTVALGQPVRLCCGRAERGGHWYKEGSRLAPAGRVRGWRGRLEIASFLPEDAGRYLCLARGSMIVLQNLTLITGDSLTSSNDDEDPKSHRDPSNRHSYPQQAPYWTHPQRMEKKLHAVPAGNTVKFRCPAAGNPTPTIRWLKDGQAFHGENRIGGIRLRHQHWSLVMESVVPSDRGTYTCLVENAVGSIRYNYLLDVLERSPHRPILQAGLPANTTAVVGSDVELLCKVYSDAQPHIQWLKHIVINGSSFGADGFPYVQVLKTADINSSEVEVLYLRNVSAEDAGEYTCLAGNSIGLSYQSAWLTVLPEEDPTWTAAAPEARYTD
Outline: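 BLI, streptavidin sensors loaded with biotinylated receptor ECD. Single-point: ~1 μM crude peptide, PBS pH7.4/0.05% Tween-20/0.01% BSA; association then dissociation in buffer. KD corrected for UPLC-CAD-determined concentration.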

FGF-R1C ECD = target: T2, FGF-R1C ECD (Homo sapiens, UniProt P11362); experiment: biochemical; parameters: DNA constructs for the extracellular domain (ECD) of human FGF-; HPC4 (C); made in house; host or cells: HEK 293-6E
T2 sequence (P11362 22-376 limits assumed): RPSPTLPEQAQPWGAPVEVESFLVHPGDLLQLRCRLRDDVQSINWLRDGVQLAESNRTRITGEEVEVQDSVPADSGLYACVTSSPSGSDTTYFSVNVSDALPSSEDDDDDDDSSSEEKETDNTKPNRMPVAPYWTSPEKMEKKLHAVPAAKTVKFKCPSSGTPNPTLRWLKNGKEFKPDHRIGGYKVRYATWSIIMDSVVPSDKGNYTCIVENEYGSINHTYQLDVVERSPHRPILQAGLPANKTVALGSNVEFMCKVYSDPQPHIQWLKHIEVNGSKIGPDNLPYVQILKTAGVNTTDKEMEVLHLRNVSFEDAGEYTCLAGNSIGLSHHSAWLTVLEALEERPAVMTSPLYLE
Outline: (§1)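 Streptavidin biosensors carrying biotinylated FGF receptor ECD were immersed in peptide (~1 μM for crude single-point runs, a concentration series for purified peptides) and then in peptide-free buffer. KD was obtained by fitting the BLI association and dissociation curves.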

FGF-R3C ECD = target: T3, FGF-R3C ECD (Homo sapiens, UniProt P22607); experiment: biochemical; parameters: DNA constructs for the extracellular domain (ECD) of human FGF-; HPC4 (C); made in house; host or cells: HEK 293-6E
T3 sequence (P22607 23-375 limits assumed): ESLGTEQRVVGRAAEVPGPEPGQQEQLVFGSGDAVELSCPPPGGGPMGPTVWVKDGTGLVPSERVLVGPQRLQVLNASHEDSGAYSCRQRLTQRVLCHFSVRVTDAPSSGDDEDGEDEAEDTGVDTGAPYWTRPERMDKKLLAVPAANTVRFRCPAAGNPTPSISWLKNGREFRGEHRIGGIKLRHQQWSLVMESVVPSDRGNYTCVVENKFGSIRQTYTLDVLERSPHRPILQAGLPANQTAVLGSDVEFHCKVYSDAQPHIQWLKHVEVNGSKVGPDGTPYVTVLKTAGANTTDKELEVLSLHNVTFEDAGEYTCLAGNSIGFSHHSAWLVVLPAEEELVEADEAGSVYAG
Outline: as §1

[1] = crude T18 selection 1 (1:1:1) peptides, single concentration BLI (Table S4)
[2] = crude NNK peptides, single concentration BLI (Table S3)

Structure (SMILES) | pKd (FGF-R4 ECD; [1]) | pKd (FGF-R1C ECD) | pKd (FGF-R3C ECD) | pKd (FGF-R4 ECD; [2])
CSCC[C@H](NC(C)=O)C(=O)N[C@H]1CSSC[C@@H](C(=O)NCC(=O)N[C@@H](CO)C(=O)NCC(=O)N[C@@H](CO)C(=O)N[C@@H](CC(=O)O)C(=O)N[C@@H](Cc2ccc(O)cc2)C(=O)N[C@@H](CCCCN)C(=O)N[C@@H](CC(=O)O)C(=O)N[C@@H](CC(=O)O)C(=O)N[C@@H](CC(=O)O)C(=O)N[C@@H](CC(=O)O)C(=O)N[C@@H](CCCCN)C(N)=O)NC(=O)[C@H](Cc2ccc(O)cc2)NC(=O)[C@H](Cc2ccccc2)NC(=O)[C@H](Cc2c[nH]c3ccccc23)NC(=O)[C@H](CCCCN)NC(=O)[C@H](Cc2ccc(O)cc2)NC(=O)[C@H](Cc2c[nH]c3ccccc23)NC(=O)[C@H](CCC(N)=O)NC(=O)[C@H](CC(C)C)NC(=O)[C@H]([C@@H](C)O)NC(=O)[C@H](C)NC(=O)[C@H](Cc2ccc(O)cc2)NC(=O)[C@H](CCCCN)NC1=O (Ac-MCKYATLQWYKWFYCGSGSDYKDDDDK-NH2; disulfide 2-15) | 7.20 | 6.94 | 5.13 | –
CSCC[C@H](NC(C)=O)C(=O)N[C@H]1CSSC[C@@H](C(=O)NCC(=O)N[C@@H](CO)C(=O)NCC(=O)N[C@@H](CO)C(=O)N[C@@H](CC(=O)O)C(=O)N[C@@H](Cc2ccc(O)cc2)C(=O)N[C@@H](CCCCN)C(=O)N[C@@H](CC(=O)O)C(=O)N[C@@H](CC(=O)O)C(=O)N[C@@H](CC(=O)O)C(=O)N[C@@H](CC(=O)O)C(=O)N[C@@H](CCCCN)C(N)=O)NC(=O)[C@H](Cc2c[nH]c3ccccc23)NC(=O)[C@H](CC(C)C)NC(=O)[C@H](CCCNC(=N)N)NC(=O)[C@H](Cc2ccc(O)cc2)NC(=O)[C@H](CC(C)C)NC(=O)[C@H](Cc2c[nH]c3ccccc23)NC(=O)[C@H](CC(C)C)NC(=O)[C@H](CC(=O)O)NC(=O)[C@H](CCCCN)NC(=O)[C@H](CO)NC(=O)[C@H](Cc2ccc(O)cc2)NC(=O)[C@H](CCCCN)NC1=O (Ac-MCKYSKDLWLYRLWCGSGSDYKDDDDK-NH2; disulfide 2-15) | 8.70 | < 5.00 | < 5.00 | –
CC[C@H](C)[C@@H]1NC(=O)[C@H](CO)NC(=O)[C@H]([C@@H](C)CC)NC(=O)[C@H](CC(C)C)NC(=O)[C@@H](NC(=O)[C@H](CCSC)NC(C)=O)CSSC[C@@H](C(=O)NCC(=O)N[C@@H](CO)C(=O)NCC(=O)N[C@@H](CO)C(=O)N[C@@H](CC(=O)O)C(=O)N[C@@H](Cc2ccc(O)cc2)C(=O)N[C@@H](CCCCN)C(=O)N[C@@H](CC(=O)O)C(=O)N[C@@H](CC(=O)O)C(=O)N[C@@H](CC(=O)O)C(=O)N[C@@H](CC(=O)O)C(=O)N[C@@H](CCCCN)C(N)=O)NC(=O)[C@H](Cc2c[nH]cn2)NC(=O)[C@H](CCCCN)NC(=O)[C@H](CC(C)C)NC(=O)[C@H](C(C)C)NC(=O)[C@H](CCCCN)NC(=O)[C@H](Cc2ccc(O)cc2)NC1=O (Ac-MCLISIYKVLKHCGSGSDYKDDDDK-NH2; disulfide 2-13) | – | < 5.00 | < 5.00 | < 5.00
CSCC[C@H](NC(C)=O)C(=O)N[C@H]1CSSC[C@@H](C(=O)NCC(=O)N[C@@H](CO)C(=O)NCC(=O)N[C@@H](CO)C(=O)N[C@@H](CC(=O)O)C(=O)N[C@@H](Cc2ccc(O)cc2)C(=O)N[C@@H](CCCCN)C(=O)N[C@@H](CC(=O)O)C(=O)N[C@@H](CC(=O)O)C(=O)N[C@@H](CC(=O)O)C(=O)N[C@@H](CC(=O)O)C(=O)N[C@@H](CCCCN)C(N)=O)NC(=O)[C@H](Cc2c[nH]cn2)NC(=O)[C@H](Cc2c[nH]c3ccccc23)NC(=O)[C@H](Cc2ccc(O)cc2)NC(=O)[C@@H]2CCCN2C(=O)[C@H](CCC(=O)O)NC(=O)[C@H](Cc2ccc(O)cc2)NC(=O)[C@H](CC(C)C)NC(=O)[C@H](Cc2c[nH]cn2)NC(=O)[C@H](CCCNC(=N)N)NC(=O)[C@H](CC(C)C)NC1=O (Ac-MCLRHLYEPYWHCGSGSDYKDDDDK-NH2; disulfide 2-13) | < 5.00 | < 5.00 | < 5.00 | –
CC[C@H](C)[C@@H]1NC(=O)[C@H](CCCCN)NC(=O)[C@H](Cc2ccc(O)cc2)NC(=O)[C@H](Cc2ccc(O)cc2)NC(=O)[C@H](Cc2c[nH]cn2)NC(=O)[C@H](Cc2c[nH]c3ccccc23)NC(=O)[C@H](CC(C)C)NC(=O)[C@@H](NC(=O)[C@H](CCSC)NC(C)=O)CSSC[C@@H](C(=O)NCC(=O)N[C@@H](CO)C(=O)NCC(=O)N[C@@H](CO)C(=O)N[C@@H](CC(=O)O)C(=O)N[C@@H](Cc2ccc(O)cc2)C(=O)N[C@@H](CCCCN)C(=O)N[C@@H](CC(=O)O)C(=O)N[C@@H](CC(=O)O)C(=O)N[C@@H](CC(=O)O)C(=O)N[C@@H](CC(=O)O)C(=O)N[C@@H](CCCCN)C(N)=O)NC(=O)[C@H](CCCCN)NC(=O)[C@H](CCC(N)=O)NC(=O)[C@H](CCCNC(=N)N)NC(=O)[C@H](CCCNC(=N)N)NC(=O)[C@H](Cc2ccccc2)NC1=O (Ac-MCLWHYYKIFRRQKCGSGSDYKDDDDK-NH2; disulfide 2-15) | 8.10 | 7.02 | < 5.00 | –
CSCC[C@H](NC(C)=O)C(=O)N[C@H]1CSSC[C@@H](C(=O)NCC(=O)N[C@@H](CO)C(=O)NCC(=O)N[C@@H](CO)C(=O)N[C@@H](CC(=O)O)C(=O)N[C@@H](Cc2ccc(O)cc2)C(=O)N[C@@H](CCCCN)C(=O)N[C@@H](CC(=O)O)C(=O)N[C@@H](CC(=O)O)C(=O)N[C@@H](CC(=O)O)C(=O)N[C@@H](CC(=O)O)C(=O)N[C@@H](CCCCN)C(N)=O)NC(=O)[C@H](CCC(=O)O)NC(=O)[C@H](CCCNC(=N)N)NC(=O)[C@H](CCCNC(=N)N)NC(=O)[C@H](Cc2c[nH]cn2)NC(=O)[C@H](Cc2ccccc2)NC(=O)[C@H](CCC(N)=O)NC(=O)[C@H](CC(C)C)NC(=O)[C@H](Cc2ccc(O)cc2)NC(=O)[C@H](Cc2ccc(O)cc2)NC(=O)[C@H](Cc2c[nH]c3ccccc23)NC(=O)[C@H](CC(C)C)NC1=O (Ac-MCLWYYLQFHRRECGSGSDYKDDDDK-NH2; disulfide 2-14) | 8.30 | 7.68 | < 5.00 | –
CC[C@H](C)[C@@H]1NC(=O)[C@H](CCCCN)NC(=O)[C@H](Cc2ccc(O)cc2)NC(=O)[C@H](CC(C)C)NC(=O)[C@H]([C@@H](C)CC)NC(=O)[C@H]([C@@H](C)CC)NC(=O)[C@H](CC(N)=O)NC(=O)[C@@H](NC(=O)[C@H](CCSC)NC(C)=O)CSSC[C@@H](C(=O)NCC(=O)N[C@@H](CO)C(=O)NCC(=O)N[C@@H](CO)C(=O)N[C@@H](CC(=O)O)C(=O)N[C@@H](Cc2ccc(O)cc2)C(=O)N[C@@H](CCCCN)C(=O)N[C@@H](CC(=O)O)C(=O)N[C@@H](CC(=O)O)C(=O)N[C@@H](CC(=O)O)C(=O)N[C@@H](CC(=O)O)C(=O)N[C@@H](CCCCN)C(N)=O)NC(=O)[C@H](CCCNC(=N)N)NC(=O)[C@H](CC(N)=O)NC(=O)[C@H](CCCCN)NC(=O)[C@H](CCSC)NC1=O (Ac-MCNIILYKIMKNRCGSGSDYKDDDDK-NH2; disulfide 2-14) | – | < 5.00 | < 5.00 | < 5.00
CC[C@H](C)[C@@H]1NC(=O)[C@H](CC(N)=O)NC(=O)[C@@H](NC(=O)[C@H](CCSC)NC(C)=O)CSSC[C@@H](C(=O)NCC(=O)N[C@@H](CO)C(=O)NCC(=O)N[C@@H](CO)C(=O)N[C@@H](CC(=O)O)C(=O)N[C@@H](Cc2ccc(O)cc2)C(=O)N[C@@H](CCCCN)C(=O)N[C@@H](CC(=O)O)C(=O)N[C@@H](CC(=O)O)C(=O)N[C@@H](CC(=O)O)C(=O)N[C@@H](CC(=O)O)C(=O)N[C@@H](CCCCN)C(N)=O)NC(=O)[C@H](C(C)C)NC(=O)[C@H](CO)NC(=O)[C@H](CC(C)C)NC(=O)[C@H]([C@@H](C)CC)NC(=O)[C@H](CCCCN)NC(=O)[C@H](Cc2ccc(O)cc2)NC(=O)[C@H](CC(C)C)NC(=O)[C@H](CC(C)C)NC1=O (Ac-MCNILLYKILSVCGSGSDYKDDDDK-NH2; disulfide 2-13) | – | < 5.00 | < 5.00 | 6.98

— article PMC10763615, “Identification and engineering of potent cyclic peptides with selective or promiscuous binding through biochemical profiling and bioinformatic data analysis” (RSC Chemical Biology, 2023)
